From patent US4427689A, “Clavulanic acid 9-deoxy-9-thia derivatives their preparation and use” (Beecham Group Limited, priority 1978, dated 1984)
Where two headings read alike, the source gives them in different places.

Assays:
Staph. aureus Russell = test: MIC of ampicillin alone or in presence of compound (synergistic activity, Demonstration 2), Staph. aureus Russell; type: cell-based; conditions: Staphylococcus aureus
Description: (§1) The MIC of ampicillin alone or in the presence of certain compounds of the invention was determined for certain Gram positive and Gram negative bacteria.

Kleb. aerogenes E70 = test: MIC of ampicillin alone or in presence of compound (synergistic activity, Demonstration 2), Kleb. aerogenes E70; type: cell-based; conditions: Klebsiella aerogenes
Description: as §1

E. coli JT39 = test: MIC of ampicillin alone or in presence of compound (synergistic activity, Demonstration 2), E. coli JT39; type: cell-based; conditions: Escherichia coli
Description: as §1

Staph. Russell = test: MIC of ampicillin alone or in presence of compound (synergistic activity, Demonstration 1), Staph. Russell; type: cell-based; conditions: Staphylococcus aureus
Description: (§2) The minimum inhibitory concentration (MIC) of ampicillin alone or in the presence of certain compounds of the invention was determined for several strains of bacteria.

Proteus C889 = test: MIC of ampicillin alone or in presence of compound (synergistic activity, Demonstration 1), Proteus C889; type: cell-based
Description: as §2

E.coli JT39 = test: MIC of ampicillin alone or in presence of compound (synergistic activity, Demonstration 1), E.coli JT39; type: cell-based; conditions: Escherichia coli
Description: as §2

Klebsiella E70 = test: MIC of ampicillin alone or in presence of compound (synergistic activity, Demonstration 1), Klebsiella E70; type: cell-based, Kleb. aerogenes; conditions: E70, compound alone
Description: as §2

E.coli E96 = test: In-vivo effect, CD50 in mice infected intraperitoneally with E.coli E96; conditions: Escherichia coli, E96, sc, subcutaneous at 1 and 5 hours post infection, no synergist, read-out: CD50 of amoxycillin alone
Description: The CD50 in mice infected intraperitoneally with E.coli E96 was determined. Amoxycillin and the synergists were dosed subcutaneously at 1 and 5 hours post infection. The synergists were used at 2 mg/kg.

[1] = compound alone, read-out: MIC, compound alone
[2] = compound conc. 0 μg/ml, read-out: MIC Ampicillin (alone)
[3] = ampicillin alone, read-out: MIC of ampicillin alone
[4] = compound alone, E. coli JT39, read-out: MIC, compound alone

Row | SMILES | MIC (Staph. aureus Russell; [1]) [µg/mL] | MIC (Kleb. aerogenes E70; [1]) [µg/mL] | MIC (E. coli JT39; [1]) [µg/mL] | other results
1 | O=C(O)[C@H]1/C(=C/CSCN2CCCC2=O)O[C@@H]2CC(=O)N21 [Example 8, Sodium 9-(2-oxopyrrolidin-1-ylmethylthio)-9-deoxyclavulate] | 62.5 | 250 | 250 | –
2 | CC(=O)NC[S+]([O-])C/C=C1\O[C@@H]2CC(=O)N2[C@H]1C(=O)O (some centres unmarked) [Example 21, Sodium 9-(acetamidomethylsulphinyl)-9-deoxyclavulanate] | 125 | 125 | 62.5 | –
3 | CC(=O)NCSC/C=C1\O[C@@H]2CC(=O)N2[C@H]1C(=O)O [Example 20, Sodium 9-(acetamidomethylthio)-9-deoxyclavulanate] | 4 | 62.5 | 62.5 | –
4 | O=C(O)[C@H]1/C(=C/CS(=O)(=O)CN2CCCC2=O)O[C@@H]2CC(=O)N21 [Example 10, Sodium 9-(2-oxopyrrolidin-1-ylmethylsulphonyl)-9-deoxyclavulanate] | 31.2 | 62.5 | 62.5 | –
5 | CC1(C)S[C@@H]2[C@H](NC(=O)[C@H](N)c3ccccc3)C(=O)N2[C@H]1C(=O)O [Ampicillin, ampicillin, reference compound] | – | – | – | MIC (Staph. Russell; [2]): 500 µg/mL; MIC Ampicillin (alone) (Proteus C889; compound conc. 0 μg/ml): 1000 µg/mL; MIC (Proteus C889; [2]): > 2000 µg/mL; MIC (E.coli JT39; compound conc. 0 μg/ml, E.coli JT39, read-out: MIC Ampicillin (alone)): 2000 µg/mL; MIC (Staph. aureus Russell; [3]): 125 to 500 µg/mL; MIC (Kleb. aerogenes E70; [3]): 500 to 2000 µg/mL; MIC (E. coli JT39; [3]): ≥ 2000 µg/mL
6 | O=C(NCSC/C=C1\O[C@@H]2CC(=O)N2[C@H]1C(=O)O)c1ccccc1 [Example 6, Sodium 9-deoxy-9-thio (N-benzoylaminomethyl) clavulanate] | 16 | 500 | – | MIC (Staph. Russell; [1]): 16 µg/mL; MIC (Klebsiella E70): 500 µg/mL; MIC (Proteus C889; [1]): 125 µg/mL; MIC (E.coli JT39; [4]): 250 µg/mL
7 | CC1(C)S[C@@H]2[C@H](NC(=O)[C@H](N)c3ccc(O)cc3)C(=O)N2[C@H]1C(=O)O [Amoxycillin, amoxycillin] | – | – | – | ED50 (E.coli E96): > 1000 mg/kg
8 | O=C1CC(SC/C=C2\O[C@@H]3CC(=O)N3[C@H]2C(=O)O)N1 (some centres unmarked) [Example 2, Sodium 9-deoxy-9-thio-(azetidin-2'-on-4'-yl) clavulanate] | 31.2 | 16 | – | MIC (Staph. Russell; [1]): 31.2 µg/mL; MIC (Klebsiella E70): 15 µg/mL; MIC (Proteus C889; [1]): 15 µg/mL; MIC (E.coli JT39; [4]): 31.2 µg/mL
9 | CC(NC=O)SC/C=C1\O[C@@H]2CC(=O)N2[C@H]1C(=O)O (some centres unmarked) [Example 13, Sodium 9-(1-formamidoethylthio)-9-deoxyclavulanate] | 16 | 62.5 | 125 | –
10 | CC(=O)NCS(=O)(=O)C/C=C1\O[C@@H]2CC(=O)N2[C@H]1C(=O)O [Example 22, Sodium 9-(acetamidomethylsuphonyl)-9-deoxyclavulanate] | 62.5 | 62.5 | 31.2 | –
